Experimental data reported in the supplement of paper PMC6045584.
± gives the standard deviation of the averaged measurements.

Experiments:
OLAPARIB = compound: O=C(c1cc(Cc2n[nH]c(=O)c3ccccc23)ccc1F)N1CCN(C(=O)C2CC2)CC1 [OLAPARIB]; assay: surviving fraction relative to DMSO-only wells; higher = less growth inhibition; conditions: exposure time: 5 days
In short: (§1)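 Inhibitors were tested at 0.5, 1, 5, 10, 50, 100, 500 and 1000 nM, applied continuously for five days beginning 24 hours after log-phase tumour cells were seeded at 250–500 per well in 384-well plates. CellTiter-Glo luminescence served as the viability measure, expressed as surviving fraction against the median of DMSO-only wells. Each line, screened three times, was kept only with replicate Pearson r >0.7 and median Z' >0.3.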

[1] = compound: COc1cc2ncnc(Nc3ccc(F)c(Cl)c3)c2cc1NC(=O)/C=C/CN1CCCCC1; assay: as above; conditions: exposure time: 5 days
In short: as §1

| Test System | surviving fraction (OLAPARIB; 0.5 nM) | surviving fraction (OLAPARIB; 1 nM) | surviving fraction (OLAPARIB; 5 nM) | surviving fraction (OLAPARIB; 10 nM) | surviving fraction (OLAPARIB; 50 nM) | surviving fraction (OLAPARIB; 100 nM) | surviving fraction (OLAPARIB; 500 nM) | surviving fraction (OLAPARIB; 1000 nM) | surviving fraction ([1]; 0.5 nM) | surviving fraction ([1]; 1 nM) | surviving fraction ([1]; 5 nM) | surviving fraction ([1]; 10 nM) | surviving fraction ([1]; 50 nM) | surviving fraction ([1]; 100 nM) | surviving fraction ([1]; 500 nM) | surviving fraction ([1]; 1000 nM) |
| --- | --- | --- | --- | --- | --- | --- | --- | --- | --- | --- | --- | --- | --- | --- | --- | --- |
| HCC1395 BREAST | 0.85 ± 0.034 | 0.934 ± 0.12 | 1.06 ± 0.065 | 1.03 ± 0.037 | 0.93 ± 0.11 | 1.02 ± 0.059 | 0.787 ± 0.096 | 0.799 ± 0.17 | 0.92 ± 0.09 | 0.93 ± 0.037 | 1.08 ± 0.099 | 1.03 ± 0.036 | 1.05 ± 0.16 | 1.01 ± 0.21 | 0.896 ± 0.14 | 0.809 ± 0.15 |
| HCC1806 BREAST | 0.945 ± 0.059 | 1.01 ± 0.063 | 1.05 ± 0.099 | 0.984 ± 0.068 | 0.896 ± 0.12 | 0.74 ± 0.041 | 0.582 ± 0.065 | 0.567 ± 0.066 | 1.11 ± 0.16 | 1.05 ± 0.11 | 1 ± 0.083 | 0.79 ± 0.046 | 0.663 ± 0.087 | 0.573 ± 0.014 | 0.458 ± 0.052 | 0.322 ± 0.022 |
| HCC1954 BREAST | 0.84 ± 0.13 | 0.762 ± 0.033 | 1.1 ± 0.06 | 0.969 ± 0.038 | 0.916 ± 0.092 | 0.6867 ± 0.0046 | 0.719 ± 0.013 | 0.497 ± 0.0021 | 1.11 ± 0.075 | 0.808 ± 0.064 | 0.756 ± 0.028 | 0.722 ± 0.084 | 0.508 ± 0.0074 | 0.471 ± 0.0092 | 0.283 ± 0.013 | 0.155 ± 0.018 |
| HCT15 LARGE INTESTINE | 1.09 ± 0.06 | 1.06 ± 0.022 | 1.01 ± 0.085 | 1.05 ± 0.065 | 0.998 ± 0.043 | 1.04 ± 0.018 | 0.999 ± 0.055 | 1.03 ± 0.034 | 1.03 ± 0.044 | 1.09 ± 0.06 | 1.05 ± 0.043 | 1.06 ± 0.069 | 1.02 ± 0.033 | 1.06 ± 0.031 | 1.03 ± 0.088 | 0.821 ± 0.057 |
| HELA CERVIX | 1.05 ± 0.064 | 1.09 ± 0.025 | 1.05 ± 0.031 | 1.04 ± 0.036 | 1.13 ± 0.03 | 1.18 ± 0.092 | 1.17 ± 0.014 | 1.19 ± 0.019 | 1.07 ± 0.055 | 1.07 ± 0.051 | 1 ± 0.076 | 1.04 ± 0.023 | 1.18 ± 0.038 | 1.17 ± 0.025 | 1.19 ± 0.072 | 1.13 ± 0.071 |
| HOS BONE | 1.03 ± 0.022 | 1.03 ± 0.026 | 1.06 ± 0.0091 | 1.012 ± 0.0081 | 1.02 ± 0.028 | 1.01 ± 0.023 | 1.01 ± 0.026 | 0.953 ± 0.041 | 1.017 ± 0.0078 | 1 ± 0.018 | 1.02 ± 0.017 | 1.02 ± 0.015 | 1.05 ± 0.019 | 1.04 ± 0.023 | 0.951 ± 0.057 | 0.888 ± 0.032 |
| HOSMNG BONE | 0.877 ± 0.088 | 0.991 ± 0.034 | 0.964 ± 0.043 | 0.933 ± 0.049 | 1.02 ± 0.056 | 1.05 ± 0.03 | 1.06 ± 0.021 | 0.925 ± 0.14 | 0.909 ± 0.07 | 0.924 ± 0.11 | 0.958 ± 0.063 | 0.917 ± 0.086 | 1.033 ± 0.0083 | 1.02 ± 0.046 | 0.97 ± 0.1 | 0.953 ± 0.017 |
| HSSYII SYNOVIAL | 0.941 ± 0.039 | 0.949 ± 0.027 | 0.882 ± 0.076 | 0.86 ± 0.013 | 0.827 ± 0.022 | 0.769 ± 0.055 | 0.6097 ± 0.0048 | 0.484 ± 0.046 | 0.98 ± 0.031 | 0.942 ± 0.038 | 0.966 ± 0.054 | 0.942 ± 0.03 | 0.928 ± 0.059 | 0.927 ± 0.045 | 0.715 ± 0.041 | 0.495 ± 0.0068 |
| HT1080 SOFT TISSUE | 1.02 ± 0.0063 | 0.977 ± 0.023 | 0.9903 ± 0.0038 | 0.965 ± 0.013 | 0.882 ± 0.037 | 0.819 ± 0.032 | 0.7243 ± 0.0055 | 0.608 ± 0.021 | 1.02 ± 0.015 | 1.01 ± 0.023 | 0.964 ± 0.0098 | 0.984 ± 0.026 | 1.03 ± 0.015 | 0.981 ± 0.034 | 0.9 ± 0.04 | 0.751 ± 0.045 |
| HU09 BONE | 1.01 ± 0.094 | 0.974 ± 0.031 | 1.04 ± 0.13 | 1.13 ± 0.083 | 0.896 ± 0.063 | 1.09 ± 0.08 | 0.851 ± 0.061 | 0.779 ± 0.096 | 1.09 ± 0.03 | 0.996 ± 0.062 | 1.14 ± 0.028 | 1.11 ± 0.12 | 1.15 ± 0.019 | 1.01 ± 0.12 | 0.635 ± 0.0066 | 0.432 ± 0.026 |
| HUO3N1 BONE | 1.008 ± 0.0076 | 1.01 ± 0.024 | 1.06 ± 0.029 | 1.02 ± 0.031 | 1.03 ± 0.045 | 0.922 ± 0.032 | 0.913 ± 0.014 | 0.834 ± 0.02 | 1.03 ± 0.037 | 0.983 ± 0.057 | 1.06 ± 0.065 | 1 ± 0.016 | 1.07 ± 0.073 | 1.03 ± 0.059 | 0.789 ± 0.018 | 0.629 ± 0.032 |
| JIMT1 BREAST | 0.917 ± 0.035 | 0.911 ± 0.024 | 0.9352 ± 0.0078 | 0.907 ± 0.023 | 0.934 ± 0.026 | 0.9217 ± 0.0036 | 0.9207 ± 0.0084 | 0.846 ± 0.025 | 1 ± 0.044 | 0.989 ± 0.031 | 0.91883 ± 0.00029 | 0.862 ± 0.012 | 0.653 ± 0.013 | 0.667 ± 0.016 | 0.545 ± 0.019 | 0.362 ± 0.025 |
| JURKAT HAEMATOPOIETIC AND LYMPHOID TISSUE | 1.1 ± 0.022 | 1.12 ± 0.03 | 1.08 ± 0.03 | 1.07 ± 0.014 | 1.038 ± 0.0047 | 0.994 ± 0.024 | 1 ± 0.019 | 0.847 ± 0.029 | 1.08 ± 0.037 | 1.06 ± 0.029 | 1.06 ± 0.043 | 1.02 ± 0.017 | 1.03 ± 0.026 | 1.04 ± 0.034 | 0.881 ± 0.056 | 0.297 ± 0.025 |
| KPD BONE | 0.983 ± 0.011 | 0.946 ± 0.024 | 0.969 ± 0.024 | 0.995 ± 0.093 | 0.959 ± 0.059 | 0.965 ± 0.022 | 0.765 ± 0.007 | 0.711 ± 0.033 | 1.03 ± 0.068 | 1.05 ± 0.04 | 1.04 ± 0.037 | 1.04 ± 0.015 | 1.05 ± 0.079 | 1.04 ± 0.019 | 0.718 ± 0.034 | 0.493 ± 0.025 |
| LM7 BONE | 1 ± 0.081 | 0.976 ± 0.058 | 1.02 ± 0.071 | 0.963 ± 0.015 | 0.812 ± 0.042 | 0.829 ± 0.02 | 0.614 ± 0.0076 | 0.554 ± 0.014 | 0.93 ± 0.059 | 0.998 ± 0.078 | 0.983 ± 0.063 | 1.06 ± 0.094 | 1.01 ± 0.011 | 0.957 ± 0.055 | 0.532 ± 0.063 | 0.287 ± 0.006 |
| LNCAP PROSTATE | 1.09 ± 0.1 | 1.03 ± 0.16 | 1 ± 0.096 | 1.032 ± 0.0049 | 1.12 ± 0.086 | 1.02 ± 0.29 | 0.97 ± 0.061 | 0.82 ± 0.13 | 0.807 ± 0.074 | 0.828 ± 0.13 | 0.858 ± 0.19 | 0.888 ± 0.16 | 0.95 ± 0.043 | 1.02 ± 0.048 | 0.896 ± 0.097 | 0.797 ± 0.12 |
| MCF7 BREAST | 0.891 ± 0.015 | 0.941 ± 0.014 | 0.946 ± 0.085 | 0.907 ± 0.037 | 0.96 ± 0.039 | 0.906 ± 0.051 | 0.95 ± 0.026 | 0.943 ± 0.043 | 0.908 ± 0.061 | 0.938 ± 0.022 | 0.922 ± 0.08 | 0.971 ± 0.096 | 1.01 ± 0.043 | 0.966 ± 0.034 | 1.01 ± 0.012 | 0.927 ± 0.07 |
| MDAMB134 BREAST | 0.96 ± 0.055 | 1.04 ± 0.17 | 1.04 ± 0.13 | 1.05 ± 0.03 | 0.971 ± 0.21 | 0.738 ± 0.042 | 0.8595 ± 0.0035 | 0.823 ± 0.028 | 0.947 ± 0.17 | 1.07 ± 0.061 | 0.944 ± 0.014 | 0.981 ± 0.14 | 1.05 ± 0.28 | 1.02 ± 0.21 | 0.795 ± 0.012 | 0.732 ± 0.013 |
| MDAMB157 BREAST | 1.01 ± 0.093 | 1.06 ± 0.035 | 0.992 ± 0.085 | 0.968 ± 0.051 | 0.991 ± 0.096 | 0.965 ± 0.043 | 0.903 ± 0.079 | 0.729 ± 0.04 | 0.951 ± 0.025 | 0.894 ± 0.018 | 1 ± 0.046 | 0.964 ± 0.056 | 0.95 ± 0.094 | 0.864 ± 0.051 | 0.887 ± 0.1 | 0.63 ± 0.095 |
| MDAMB231 BREAST | 0.961 ± 0.02 | 0.98 ± 0.031 | 0.974 ± 0.0099 | 0.97 ± 0.029 | 0.929 ± 0.017 | 0.957 ± 0.013 | 0.899 ± 0.015 | 0.807 ± 0.016 | 1.03 ± 0.024 | 1.02 ± 0.024 | 1.05 ± 0.019 | 1.047 ± 0.01 | 1.02 ± 0.035 | 1 ± 0.024 | 0.692 ± 0.022 | 0.488 ± 0.039 |
| MDAMB361 BREAST | 0.82 ± 0.026 | 0.793 ± 0.076 | 0.773 ± 0.094 | 0.767 ± 0.042 | 0.612 ± 0.064 | 0.603 ± 0.048 | 0.577 ± 0.051 | 0.523 ± 0.036 | 0.896 ± 0.049 | 0.909 ± 0.035 | 0.922 ± 0.052 | 0.833 ± 0.03 | 0.738 ± 0.017 | 0.745 ± 0.055 | 0.586 ± 0.019 | 0.543 ± 0.046 |
